Source: US9029366B2, “Substituted bicyclic alkoxy pyrazole analogs as allosteric modulators of mGluR5 receptors” (Vanderbilt University, priority 2012, dated 2015)

What was measured:
human mGluR5 = human mGluR5 (Homo sapiens, UniProt P41594); assay: Cell-based functional Ca2+ mobilization assay (FDSS), potentiation of glutamate EC20 response, HEK293A cells transfected with human mGluR5a (H10H or H12H cell line); settings: H10H cell line expressing recombinant human mGluR5, in presence of glutamate EC20, ** = compound is an antagonist; for EC50: read-out: pEC50 (converted); for Emax: HEK293-A, % of maximal glutamate response
Sequence of human mGluR5 (P41594 21-1180 isoform P41594-2 limits assumed): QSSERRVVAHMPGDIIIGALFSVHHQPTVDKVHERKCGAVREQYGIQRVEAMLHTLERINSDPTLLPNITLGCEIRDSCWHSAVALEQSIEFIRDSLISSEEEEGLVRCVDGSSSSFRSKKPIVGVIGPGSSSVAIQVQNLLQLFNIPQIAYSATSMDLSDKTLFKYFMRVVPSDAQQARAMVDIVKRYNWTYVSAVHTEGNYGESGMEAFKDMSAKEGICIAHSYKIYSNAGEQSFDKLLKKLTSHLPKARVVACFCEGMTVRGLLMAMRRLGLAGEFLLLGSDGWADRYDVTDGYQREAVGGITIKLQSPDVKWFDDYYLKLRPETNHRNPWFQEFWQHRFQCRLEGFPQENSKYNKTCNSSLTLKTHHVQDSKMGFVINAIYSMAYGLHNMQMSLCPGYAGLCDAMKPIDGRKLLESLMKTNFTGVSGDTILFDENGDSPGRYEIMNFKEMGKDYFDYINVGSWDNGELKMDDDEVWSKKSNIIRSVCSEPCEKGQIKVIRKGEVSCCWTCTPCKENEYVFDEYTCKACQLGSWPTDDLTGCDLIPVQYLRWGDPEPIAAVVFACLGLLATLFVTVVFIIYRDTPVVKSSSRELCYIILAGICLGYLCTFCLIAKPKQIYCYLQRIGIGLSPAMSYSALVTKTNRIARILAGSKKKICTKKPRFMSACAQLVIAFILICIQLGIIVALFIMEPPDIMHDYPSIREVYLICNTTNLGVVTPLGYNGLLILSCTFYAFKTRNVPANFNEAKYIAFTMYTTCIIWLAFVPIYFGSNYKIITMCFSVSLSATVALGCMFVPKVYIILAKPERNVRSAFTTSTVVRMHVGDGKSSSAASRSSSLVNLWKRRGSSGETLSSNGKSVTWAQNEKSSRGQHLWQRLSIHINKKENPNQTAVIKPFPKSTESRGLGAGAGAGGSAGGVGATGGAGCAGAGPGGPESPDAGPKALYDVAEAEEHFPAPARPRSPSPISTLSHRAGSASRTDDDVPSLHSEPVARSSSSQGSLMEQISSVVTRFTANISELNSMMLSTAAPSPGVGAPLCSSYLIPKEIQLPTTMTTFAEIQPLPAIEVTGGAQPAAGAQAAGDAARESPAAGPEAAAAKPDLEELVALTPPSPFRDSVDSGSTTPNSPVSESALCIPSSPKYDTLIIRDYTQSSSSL
Method: Human embryonic kidney (HEK) cells transfected with rat mGluR5 were plated in clear bottom assay plates for assay in a Functional Drug Screening System (FDSS). In the alternative assay, HEK cells transfected with human mGluR5 were plated for assay in the FDSS. In some cases the HEK cells transfected with human mGluR5 are the H10H cell line. Alternatively, the HEK cells transfected with human mGluR5 are the H12H cell line. […] The cells were loaded with a Ca^2+-sensitive fluorescent dye (e.g., Fluo-4), and the plates were washed and placed in the FDSS instrument. After establishment of a fluorescence baseline for about three seconds, the compounds of the present invention were added to the cells, and the response in cells was measured. Five minutes later, an mGluR5 agonist (e.g., glutamate, 3,5-dihydroxyphenylglycine, or quisqualate) was added to the cells, and the response of the cells was measured.
The above described assay can be operated in two modes. In the first mode, a range of concentrations of the present compounds were added to cells, followed by a single fixed concentration of agonist. If a compound acted as a potentiator, an EC50 value for potentiation and a maximum extent of potentiation by the compound at this concentration of agonist was determined by non-linear curve fitting. In the second mode, several fixed concentrations of the present compounds were added to various wells on a plate, followed by a range of concentrations of agonist for each concentration of present compound; the EC50 values for the agonist at each concentration of compound were determined by non-linear curve fitting. A decrease in the EC50 value of the agonist with increasing concentrations of the present compounds (a leftward shift of the agonist concentration-response curve) is an indication of the degree of mGluR5 potentiation at a given concentration of the present compound. An increase in the EC50 value of the agonist with increasing concentrations of the present compounds (a rightward shift of the agonist concentration-response curve) is an indication of the degree of mGluR5 antagonism at a given concentration of the present compound. The second mode also indicates whether the present compounds also affect the maximum response to mGluR5 to agonists.
Human mGluR5a cDNA in pCMV6-XL6 mammalian expression plasmid was purchased from OriGene Technologies, Inc. (catalogue number SC326357) and subcloned into pcDNA3.1(−). Human embryonic kidney (HEK)293A cells were then transfected with human mGluR5a pcDNA3.1(−) using LipofectAmine2000 (Invitrogen) and monoclones were selected and tested for functional response using a Ca^2+ mobilization assay. Monoclones were named for the species (“H” for human) plus the location on the plate (e.g. “10H”).
HEK cells transfected with the human mGluR5a receptor (H10H or H12H cell line) were plated at 15,000 cells/well in clear-bottomed poly-D-lysine-coated assay plates (BD Falcon) in glutamate-glutamine-free growth medium and incubated overnight at 37° C. and 5% CO2. Cell-lines used were either the H10H or H12H cell-lines expressing the human mGluR5 receptor. The following day, the growth medium was removed and the cells were washed with assay buffer containing 1× Hank's balanced salt solution (Invitrogen, Carlsbad, Calif.), 20 mM HEPES, 2.5 mM probenecid, pH 7.4 and left with 20 μL of this reagent. Following this step, the cells were loaded with calcium indicator dye, fluo-4 AM, to a final concentration of 2 μM and incubated for 40-45 min at 37° C. The dye solution was removed and replaced with assay buffer. Cell plates were held for 10-15 min at room temperature and were then loaded into the Functional Drug Screening System 6000 (FDSS 6000, Hamamatsu, Japan).
After establishment of a fluorescence baseline for about 3 seconds, the compounds of the present invention were added to the cells, and the response in cells was measured.

| melting point [°C] | EC50 (human mGluR5) [nM] | Emax (human mGluR5) [%] | Compound |
| --- | --- | --- | --- |
| 120.8 | 251 | 46 | O=C(c1cccc(F)c1)N1CCn2nc(OCc3ccccc3)cc2C1 [Example B2, 2-(benzyloxy)-5-[(3-fluorophenyl)carbonyl]-4,5,6,7-tetrahydropyrazolo[1,5-a]pyrazine] |
| > 300 | 126 | 60 | N#Cc1cccc(COc2cc3n(n2)CCN(C(=O)c2ccc(F)cc2)C3)c1 [Example B3, 3-[({5-[(4-fluorophenyl)carbonyl]-4,5,6,7-tetrahydropyrazolo[1,5-a]pyrazin-2-yl}oxy)methyl]benzonitrile] |
| 103.4 | > 10000 | 26 | Cc1cc(COc2cc3n(n2)CCN(C(=O)c2ccc(F)cc2)C3)ccn1 [Example B4, 5-[(4-fluorophenyl)carbonyl]-2-[(2-methylpyridin-4-yl)methoxy]-4,5,6,7-tetrahydropyrazolo[1,5-a]pyrazine] |
| 151.6 | 724 | 42 | N#Cc1cccc(C(=O)N2CCn3nc(OCc4ccccc4)cc3C2)c1 [Example B5] |
| 117.6 | > 30200 | 24 | N#Cc1cc(F)cc(C(=O)N2CCn3nc(OCc4ccccc4)cc3C2)c1 [Example B6] |
| 165.4 | 479 | 54 | O=C(c1ccc(F)cc1)N1CCn2nc(OCc3ccc(F)cc3)cc2C1 [Example B9] |
| > 300 | 89.1 | 62 | O=C(c1ccc(F)cc1)N1CCn2nc(OCc3cccc(F)c3)cc2C1 [Example B10] |
| 135.2 | 234 | 64 | O=C(c1ccc(F)cc1)N1CCn2nc(OCc3ccccc3F)cc2C1 [Example B11] |
| 156.9 | > 30200 | 28 | Cc1ccc(COc2cc3n(n2)CCN(C(=O)c2ccc(F)cc2)C3)cc1 [Example B12] |
| 118.9 | 339 | 59 | Cc1cccc(COc2cc3n(n2)CCN(C(=O)c2ccc(F)cc2)C3)c1 [Example B13] |
| 99.3 | 2000 | 51 | Cc1ccccc1COc1cc2n(n1)CCN(C(=O)c1ccc(F)cc1)C2 [Example B14] |
| 108.3 | > 30200 | 22 | COc1ccc(COc2cc3n(n2)CCN(C(=O)c2ccc(F)cc2)C3)cc1 [Example B15] |
| 120.8 | 1410 | 49 | COc1cccc(COc2cc3n(n2)CCN(C(=O)c2ccc(F)cc2)C3)c1 [Example B16] |
| 135.6 | > 10000 | 47 | COc1ccccc1COc1cc2n(n1)CCN(C(=O)c1ccc(F)cc1)C2 [Example B17] |
| 138.1 | > 30200 | 22 | O=C(c1ccc(F)cc1)N1CCn2nc(OCc3ccccn3)cc2C1 [Example B18] |
| 178.8 | 457 | 53 | O=C(c1ccc(F)cc1)N1CCn2nc(OCc3ccncc3)cc2C1 [Example B20] |
| 123 | 1510 | 60 | O=C(c1ccc(F)cn1)N1CCn2nc(OCc3ccccc3)cc2C1 [Example B28] |
| 135.1 | > 30200 | 27 | O=C(c1ncccc1Cl)N1CCn2nc(OCc3ccccc3)cc2C1 [Example B29] |
| 134 | > 30200 | 28 | Cc1nccc(C(=O)N2CCn3nc(OCc4ccccc4)cc3C2)n1 [Example B31] |
| 81.2 | > 10000 | 32 | Cc1cccc(C(=O)N2CCn3nc(OCc4ccccc4)cc3C2)n1 [Example B32] |
| 104.6 | 3890 | 44 | Cc1ccc(C(=O)N2CCn3nc(OCc4ccccc4)cc3C2)cn1 [Example B33] |
| 129.2 | > 30200 | 28 | Cc1ncccc1C(=O)N1CCn2nc(OCc3ccccc3)cc2C1 [Example B34] |

| melting point [°C] | EC50 (human mGluR5) [nM] | Emax (human mGluR5) [%] | Compound |
| --- | --- | --- | --- |
| 138.6 | > 30200 | 27 | COc1ccc(C(=O)N2CCn3nc(OCc4ccccc4)cc3C2)cn1 [Example B35] |
| 97.1 | > 30200 | 9 | COc1cccc(C(=O)N2CCn3nc(OCc4ccccc4)cc3C2)n1 [Example B82] |
| 166.4 | > 30200 | 27 | Cc1ncc(C(=O)N2CCn3nc(OCc4ccccc4)cc3C2)cn1 [Example B83] |
| > 300 | > 10000 | 40 | O=C(c1ccc(F)cc1)N1CCCn2nc(OCc3ccncc3)cc2C1 [Example B89] |
| 154.7 | 61.7 | 25 | O=C(c1cc(F)cc(F)c1)N1CCn2nc(OCc3cccc(F)c3)cc2C1 [Example B94] |
| 150.4 | 66.1 | 48.5 | N#Cc1cccc(COc2cc3n(n2)CCN(C(=O)c2ccccc2)C3)c1 [Example B95] |
| 131 | 331 | 48 | O=C(c1ccccc1)N1CCn2nc(OCc3ccc(F)cc3)cc2C1 [Example B97] |
| 117 | 112 | 66 | O=C(c1cccc(Cl)c1)N1CCn2nc(OCc3cccc(F)c3)cc2C1 [Example B98] |
|  | ≥ 10000 | 51 | O=C(c1ccc(F)cc1)N1CCn2nc(OCc3ccnc(F)c3)cc2C1 [Example B116] |
|  | > 30200 | 30 | O=C(c1ccc(F)cc1)N1CCn2nc(OCc3ncccn3)cc2C1 [Example B117] |
|  | > 30200 | 25 | O=C(c1ccc(F)cc1)N1CCn2nc(OCc3ccc4nccn4c3)cc2C1 [Example B118] |
|  | > 30200 | 28 | CS(=O)(=O)c1cccc(COc2cc3n(n2)CCN(C(=O)c2ccc(F)cc2)C3)c1 [Example B122] |
|  | ≥ 10000 | 30 | O=C(c1ccc(F)cc1)N1CCn2nc(OCc3ccnc(C(F)(F)F)c3)cc2C1 [Example B123] |
|  | 676 | 54 | O=C(c1ccc(F)cc1)N1CCn2nc(OCc3cccc(C(F)F)c3)cc2C1 [Example B124] |
|  | 245 | 73 | O=C(N1CCn2nc(OCc3ccccc3)cc2C1)C12C3C4C5C3C1C5C42 (centres unmarked) [Example B125] |
|  | 178 | 35 | O=C(c1ccc(F)cc1)N1CCn2nc(OCc3ccnc(Cl)c3)cc2C1 [Example B126] |
|  | 562 | 36 | N#Cc1cc(COc2cc3n(n2)CCN(C(=O)c2ccc(F)cc2)C3)ccn1 [Example B127] |
|  | > 30200 | 28 | Cn1ccc(COc2cc3n(n2)CCN(C(=O)c2ccc(F)cc2)C3)cc1=O [Example B128] |
|  | ≥ 10000 | 38 | O=C(c1ccc(F)cc1)N1CCn2nc(OCc3cc[n+]([O-])cc3)cc2C1 [Example B135] |
|  | ≥ 10000 | 41 | O=C(c1ccc(F)cc1)N1CCn2nc(OCc3ccncc3Cl)cc2C1 [Example B136] |
|  | 891 | 37 | O=C(c1ccnc(F)c1)N1CCn2nc(OCc3ccccc3)cc2C1 [Example B138] |
